Values belong to the molecule of their own block, whether it stands above or below them. Bridge positions count the residues as written; N and C are the ends. Ends that are not written are not given here. Peptide text beside a SMILES is read from it. * marks the point of attachment. Biotin = O=C1N[C@H]2[C@H](CS[C@H]2CCCCC(=O)*)N1
Experiments:
EpCAM [1] = target: T1, EpCAM (Homo sapiens, UniProt P16422); assay: Dissociation constant of EpCAM-binding peptide and EpCAM by fluorescence depolarization method; settings: FITC-modified peptide; Kd estimated by curve fitting, Hill equation; N.B.: Not bound
T1 construct: with insertions myc and His tags at the C terminus of the extracellular domain; myc (C); made in house; host or cells: HEK-293T
T1 sequence (P16422 24-265 limits assumed): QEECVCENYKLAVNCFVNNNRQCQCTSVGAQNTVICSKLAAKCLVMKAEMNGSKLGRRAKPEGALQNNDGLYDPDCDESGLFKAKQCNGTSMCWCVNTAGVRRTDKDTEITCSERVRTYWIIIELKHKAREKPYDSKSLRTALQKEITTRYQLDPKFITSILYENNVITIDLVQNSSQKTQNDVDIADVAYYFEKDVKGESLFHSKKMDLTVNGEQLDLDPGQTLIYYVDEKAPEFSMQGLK
Experimental: The obtained EpCAM peptides were assayed for their strength of binding to EpCAM by the fluorescence depolarization method, which is a method for evaluating the interaction between molecules. Each fluorescently labeled EpCAM peptide and EpCAM are used to determine the strength of binding from the kinetics of depolarization by Brownian movement.
Each FITC-modified EpCAM peptide or control peptide was suspended at a concentration of approximately 100 μM in PBS. After centrifugation, the supernatant was collected and diluted 10-fold, and the absorbance was measured at 495 nm From the measurement value, the molar concentration of the peptide was determined using the formula of Beer-Lambert of the following expression 1: A=E×b×C [Expression 1]
EpCAM is diluted with PBS into several concentrations from 0 until reaching equilibrium (40 nM for the Ep133 peptide), and the FITC-modified peptide whose precise concentration has been measured by the aforementioned method is added to the dilutions thus prepared. The sample was left at a temperature for measurement for 30 minutes or longer and subjected to polarization measurement using a spectrofluorometer FP-6500 (JASCO Corp.) equipped with an automatic polarization measurement unit (JASCO Corp., APH-103). Kd was estimated by curve fitting according to the Hill equation.
The dissociation constants of the two types of peptides Ep133 (FIG. 2(A)) and Ep114 (FIG. 2(C)), which were obtained in the present invention and had the high ability to bind to EpCAM, were measured by the fluorescence depolarization method.
The dissociation constants of the EpCAM-binding peptide Ep301 (FIG. 2(D)) disclosed in Patent Literature 2 and Ep301 control (FIG. 2(E)), which was a control peptide derived from Ep301 by the substitution of cysteine at positions 5 and 10 by serine, and a sequence of EpCAM from residue 106 to 119 (FIG. 2(F)) having partial homology to EpCAM-binding peptides were measured similarly.

EpCAM on HT-29 = target: T2, EpCAM on HT-29 (Homo sapiens, UniProt P16422); assay: Staining of spheroid-cultured HT-29 cells with FITC-modified peptide; type: cell-based; design: endogenous in cells; host or cells: HT-29; settings: FITC-labeled peptide, 0.4 μM
T2 sequence (P16422 24-314): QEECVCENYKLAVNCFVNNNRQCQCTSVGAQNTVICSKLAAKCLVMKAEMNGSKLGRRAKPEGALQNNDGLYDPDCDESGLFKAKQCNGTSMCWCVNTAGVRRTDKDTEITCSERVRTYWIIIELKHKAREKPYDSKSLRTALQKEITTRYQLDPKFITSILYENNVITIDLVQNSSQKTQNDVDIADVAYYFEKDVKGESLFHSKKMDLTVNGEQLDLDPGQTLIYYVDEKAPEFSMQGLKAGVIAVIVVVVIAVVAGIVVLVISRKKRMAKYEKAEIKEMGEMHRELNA
Experimental: The HT-29 cells as EpCAM-expressing cells were cultured by spheroid culture method as follows: 4×10^5 cells are suspended in 3 ml of D-MEM/F-12 medium (Dulbecco's Modified n Eagle Medium:Nutrient Mixture 12, 1:1 mixture) (Gibco/Life Technologies Inc.) supplemented with 20 ng/ml human EGF (Miltenyi Biotec K.K.), 20 ng/ml human EGF-2 (Miltenyi Biotec K.K.), B-27 (Gibco/Life Technologies Inc.), penicillin, and streptomycin and inoculated to EZ-Sphere®, a Petri dish of 3.5 cm in diameter coated with MPC polymer. After static culture for 72 hours, the cells were collected while the medium was suspended by pipetting. The cells were stained with the FITC-modified peptide and observed under a fluorescence microscope. […]

[2] = target: T3, EpCAM-expressing cells HT-29 (Homo sapiens, UniProt P16422); assay: Cell staining of HT-29 cells, confocal microscope; type: cell-based; settings: HT-29, FITC-labeled peptide 0.4 μM, 37° C., 1 hour
T3 construct: EpCAM on HT-29 was stained at a concentration of 0.4 μM; endogenous in cells; host or cells: HT-29
T3 sequence (P16422 24-314): T2 sequence (P16422 24-314)
Experimental: The EpCAM-expressing cells HT-29 or the non-expressing cells Hs578T were cultured in a medium containing 10% fetal calf serum in a Petri dish for 48 hours and then incubated at 37° C. for 1 hour with the FITC-labeled Ep114 peptide or a L3A control labeled peptide at a final concentration of 0.4 μM Immediately thereafter, the cells were observed under a confocal microscope.

EpCAM [3] = target: T1, EpCAM; assay: ELISA with ferritin-fused Ep114 peptide; type: binding; settings: either partner immobilized
Experimental: Ep114 was fused to the N terminus of Fer8 (Non Patent Literature 6), a ferritin derivative, and used in analysis.
1 μg of the ferritin-fused Ep114 peptide (Ep114/fer8) or ferritin (fer8) was immobilized onto an ELISA plate. Then, purified EpCAM was added thereto at different concentrations. Bound EpCAM was detected using the anti-EpCAM antibody (FIG. 8A).
Next, 0.2 μg of purified EpCAM was immobilized onto an ELISA plate. Then, the ferritin-fused Ep114 peptide (Ep114/fer8) or ferritin (fer8) was added thereto at different concentrations. Bound Ep114 peptide (Ep114/fer8) or ferritin (fer8) was detected using an anti-ferritin antibody (FIG. 8B).

EpCAM [4] = target: T1, EpCAM; assay: ELISA with immobilized biotinylated peptide and purified EpCAM; type: binding; settings: purified EpCAM 0, 10 or 100 ng
Experimental: was immobilized onto an ELISA plate via streptavidin, and purified EpCAM was added thereto in an amount of 0, 10, or 100 ng and reacted. After washing, bound EpCAM was detected using the anti-EpCAM antibody. A biotin-modified peptide PE194 (Ac-[…](biotin)-NH2) (SEQ ID NO: 13) of the L3A variant (non-EpCAM-binding variant) was used as a control.

anti-Ep114 antibody = assay: Immunoprecipitation with biotinylated Ep114 on streptavidin beads: binding to anti-Ep114 antibody; design: species or system rabbit; settings: peptide on streptavidin-magnetic beads, Western blot
Experimental: 250 μg of streptavidin-magnetic beads (Dynabeads® M-280 streptavidin, VERITAS Corp.) in TBS containing 2% BSA was added to 20 μg of the biotinylated Ep114 peptide and shaken at room temperature for 30 minutes, followed by washing with TBS. Beads reacted without the peptide were used as a control. The anti-Ep114 antibody was added to the beads in TBST and reacted at room temperature for 1 hour. After washing with TBS, the beads were collected. The collected beads were heated at 95° C. for 5 minutes in a SDS sample buffer. After Western-blotting, the anti-Ep114 antibody was detected using HRP-labeled anti-rabbit antibodies.
A schematic diagram of the reaction with the magnetic beads is shown in the left panel of FIG. 5A, and the Western blot results are shown on the right panel thereof.

EpCAM [5] = target: T4, EpCAM (Homo sapiens, UniProt P16422); assay: Binding activity against EpCAM after oxidation treatment (S—S bond formation, HPLC fractionation)
T4 sequence (P16422 24-314): T2 sequence (P16422 24-314)

[6] = target: T5, 293T cells transfected with full-length EpCAM gene (Homo sapiens, UniProt P16422); assay: Staining of 293T cells forced to express EpCAM with FITC-modified peptide; type: cell-based
T5 construct: an expression plasmid in which the full-length EpCAM gene incorporated; expressed in transfected cells; host or cells: 293T
T5 sequence (P16422 24-314): T2 sequence (P16422 24-314)
Text: 293T cells expressing no endogenous EpCAM were transfected with pkk196, an expression plasmid in which the full-length EpCAM gene incorporated, and forced to express EpCAM, followed by staining using FITC-modified Ep114.

Molecule: KSLQSINNLSWP [Ep301 control, Ep301 with cysteine at positions 5 and 10 substituted by serine]
- Kd (nM) (EpCAM [1]): N.B.

Molecule: 114-FITC: FITC-labeled Ep114 peptide (KHLQCVRNICWS; cysteine pairing not given here; also: FITC-labeled, position not given here) [Peptide 114-FITC]
- staining of EpCAM on HT-29 spheroids (EpCAM on HT-29): stained

Molecule: KAKQCNGTSMCWPK [EpCAM partial sequence]
- Kd (nM) (EpCAM [1]): N.B.

Molecule: Ac-KHAQCVRNICWSPPPPPPKK(Biotin)-NH2 (cysteine pairing not given here) [PE194, reference compound]
- ELISA signal (EpCAM [4]): increase in signal intensity was rarely observed

Molecule: Ac-KHLQCVRNICWSPPPPPPKK(Biotin)-NH2 (cysteine pairing not given here) [PE183]
- ELISA signal (EpCAM [4]): enhancement in ELISA signal proportional to the amount of EpCAM added

Molecule: EHLHSLGSLSWP [Ep133 control, Ep133 with cysteine at positions 5 and 10 substituted by serine]
- Kd (nM) (EpCAM [1]): N.B.

Molecule: 133-FITC: FITC-labeled Ep133 peptide (EHLHCLGSLCWP; cysteine pairing not given here; also: FITC-labeled, position not given here) [Peptide 133-FITC]
- staining of EpCAM on HT-29 spheroids (EpCAM on HT-29): stained

Molecule: CC(C)C[C@@H]1NC(=O)[C@@H](NC(=O)[C@H](Cc2c[nH]cn2)NC(=O)[C@H](CC(C)C)NC(=O)[C@H](Cc2c[nH]cn2)NC(=O)[C@@H](N)CCC(=O)O)CSSC[C@@H](C(=O)N[C@@H](Cc2c[nH]c3ccccc23)C(=O)N2CCC[C@H]2C(=O)O)NC(=O)[C@H](CC(C)C)NC(=O)[C@H](CO)NC(=O)CNC1=O [Ep133, EHLHCLGSLCWP] (H-EHLHCLGSLCWP-OH; disulfide 5-10; N-terminus and C-terminus assumed)
- binding activity against EpCAM (EpCAM [5]): only a fraction of the peptides having the S—S bond showed binding activity against EpCAM
- ability to bind to EpCAM without active oxidation treatment ([6]; data not shown): did not show the ability to bind to EpCAM

Molecule: Ep114Cys: FITC-modified Ep114 peptide that did not undergo oxidation treatment (KHLQCVRNICWS; also: FITC-modified, position not given here, no oxidation treatment, cysteines not deliberately cross-linked)
- ability to stain EpCAM ([6]; FITC-modified peptide with or without oxidation treatment): equivalent ability to stain EpCAM

The remaining lines, values ahead:

- staining of EpCAM on HT-29 spheroids (EpCAM on HT-29): no staining is observed
Molecule: 114control-FITC: FITC-labeled Ep114 control peptide in which cysteine at positions 5 and 10 is substituted by serine (KHLQSVRNISWS; also: FITC-labeled, position not given here) [reference compound]

- staining of cell membrane portions [2]: no staining was observed
Molecule: L3A variant: FITC-labeled Ep114 variant peptide with leucine at 3rd residue substituted by alanine, staining control (KHAQCVRNICWS; cysteine pairing not given here; also: FITC-labeled, position not given here) [reference compound]

- detection of EpCAM (EpCAM [3]): capable of sensitively detecting EpCAM
Molecule: ferritin-fused Ep114 peptide: Ep114 fused to the N terminus of Fer8, a ferritin derivative (KHLQCVRNICWS; not fully specified (C-terminus, bridges); cysteine pairing not given here; also: fused to ferritin Fer8 (recombinant carrier), not in the letters)

- staining of EpCAM on HT-29 spheroids (EpCAM on HT-29): no staining is observed
Molecule: 133control-FITC: FITC-labeled Ep133 control peptide in which cysteine at positions 5 and 10 is substituted by serine (EHLHSLGSLSWP; also: FITC-labeled, position not given here) [reference compound]

- binding to anti-Ep114 antibody (anti-Ep114 antibody): bound with the anti-Ep114 antibody
Molecule: biotinylated Ep114: Ep114 peptide biotinylated at the stage of its synthesis, without linker (KHLQCVRNICWS; cysteine pairing not given here; also: biotin label, position not given here)

Source: patent publication US9815866B2, “Peptides that bind to epithelial cell adhesion molecule” (JAPANESE FOUNDATION FOR CANCER RESEARCH, priority 2012, dated 2017)
